Laboratory results from PubChem BioAssay (NCI).
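Cells were grown in 96-well plates and exposed to each compound for 48 hours at five concentrations; endpoints were interpolated linearly between bracketing concentrations, or set to the highest concentration if not reached. GI50 is the concentration that inhibits growth by half. TGI marks complete inhibition of growth.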

Columns and labels:
Experiment in all cases: DTP human tumour cell line panel, 48 h
NCI-H226 lung = tested on: NCI-H226 lung
TK-10 renal = tested on: TK-10 renal
MOLT-4 leukemia = tested on: MOLT-4 leukemia
HS 578T breast = tested on: HS 578T breast
NCI-H23 lung = tested on: NCI-H23 lung
OVCAR-8 ovarian = tested on: OVCAR-8 ovarian
DU-145 prostate = tested on: DU-145 prostate
786-0 renal = tested on: 786-0 renal
UACC-62 melanoma = tested on: UACC-62 melanoma
NCI-H460 lung = tested on: NCI-H460 lung
OVCAR-3 ovarian = tested on: OVCAR-3 ovarian
SNB-75 CNS = tested on: SNB-75 CNS
KM12 colon = tested on: KM12 colon
U251 CNS = tested on: U251 CNS
MALME-3M melanoma = tested on: MALME-3M melanoma
CAKI-1 renal = tested on: CAKI-1 renal
MCF7 breast = tested on: MCF7 breast
NCI-H522 lung = tested on: NCI-H522 lung
MDA-MB-435 = tested on: MDA-MB-435
SNB-19 CNS = tested on: SNB-19 CNS
MDA-MB-231 breast = tested on: MDA-MB-231 breast
SK-MEL-5 melanoma = tested on: SK-MEL-5 melanoma
HCT-15 colon = tested on: HCT-15 colon
RPMI-8226 leukemia = tested on: RPMI-8226 leukemia
SW-620 colon = tested on: SW-620 colon
OVCAR-4 ovarian = tested on: OVCAR-4 ovarian
SK-OV-3 ovarian = tested on: SK-OV-3 ovarian
OVCAR-5 ovarian = tested on: OVCAR-5 ovarian
RXF 393 renal = tested on: RXF 393 renal
NCI/ADR-RES ovarian = tested on: NCI/ADR-RES ovarian
BT-549 breast = tested on: BT-549 breast
HOP-62 NSCLC = tested on: HOP-62 NSCLC
SF-539 CNS = tested on: SF-539 CNS
UACC-257 melanoma = tested on: UACC-257 melanoma
M14 melanoma = tested on: M14 melanoma
A549 NSCLC = tested on: A549 NSCLC
HT29 colon = tested on: HT29 colon
SK-MEL-2 melanoma = tested on: SK-MEL-2 melanoma
UO-31 renal = tested on: UO-31 renal
SF-268 CNS = tested on: SF-268 CNS
LOX IMVI melanoma = tested on: LOX IMVI melanoma
K-562 leukemia = tested on: K-562 leukemia
HOP-92 NSCLC = tested on: HOP-92 NSCLC
HCC-2998 colon = tested on: HCC-2998 colon
HCT-116 colon = tested on: HCT-116 colon
SK-MEL-28 melanoma = tested on: SK-MEL-28 melanoma
A498 renal = tested on: A498 renal
SF-295 CNS = tested on: SF-295 CNS
IGROV1 ovarian = tested on: IGROV1 ovarian
SR leukemia = tested on: SR leukemia
T-47D breast = tested on: T-47D breast
SN12C renal = tested on: SN12C renal
COLO 205 colon = tested on: COLO 205 colon
PC-3 prostate = tested on: PC-3 prostate
HL-60(TB) leukemia = tested on: HL-60(TB) leukemia
CCRF-CEM leukemia = tested on: CCRF-CEM leukemia
ACHN renal = tested on: ACHN renal

`CC(C)[C@H](CO)Nc1nc(Nc2ccc(C(=O)NCCNS(=O)(=O)c3cccc4c(N(C)C)cccc34)c(Cl)c2)c2ncn(C(C)C)c2n1` was tested, and the GI50 (NCI-H226 lung) was 2.75 µM, the TGI (NCI-H226 lung) was > 40 µM and the GI50 (TK-10 renal) was 7.62 µM. For the same compound, the TGI (TK-10 renal) was > 100 µM, the GI50 (MOLT-4 leukemia) was 3.51 µM and the TGI (MOLT-4 leukemia) was > 100 µM. The GI50 (HS 578T breast) was 2.08 µM, the TGI (HS 578T breast) was > 100 µM and the GI50 (NCI-H23 lung) was 3 µM. For the same compound, the TGI (NCI-H23 lung) was > 36.2 µM, the GI50 (OVCAR-8 ovarian) was 3.18 µM and the TGI (OVCAR-8 ovarian) was > 100 µM. For the same compound, the GI50 (DU-145 prostate) was 4.41 µM, the TGI (DU-145 prostate) was > 100 µM and the GI50 (786-0 renal) was 3.15 µM. For the same compound, the TGI (786-0 renal) was > 100 µM, the GI50 (UACC-62 melanoma) was 3.4 µM and the TGI (UACC-62 melanoma) was > 100 µM. The GI50 (NCI-H460 lung) was 3.45 µM, the TGI (NCI-H460 lung) was > 100 µM and the GI50 (OVCAR-3 ovarian) was 2.65 µM. For the same compound, the TGI (OVCAR-3 ovarian) was > 66.9 µM, the GI50 (SNB-75 CNS) was 1.75 µM and the TGI (SNB-75 CNS) was > 100 µM. The GI50 (KM12 colon) was 0.447 µM, the TGI (KM12 colon) was 2.72 µM and the GI50 (U251 CNS) was 2.72 µM. For the same compound, the TGI (U251 CNS) was > 100 µM, the GI50 (MALME-3M melanoma) was > 25.5 µM and the TGI (MALME-3M melanoma) was > 100 µM. The GI50 (CAKI-1 renal) was 5.78 µM, the TGI (CAKI-1 renal) was > 100 µM and the GI50 (MCF7 breast) was 0.987 µM. For the same compound, the TGI (MCF7 breast) was > 83 µM, the GI50 (NCI-H522 lung) was 2.19 µM and the TGI (NCI-H522 lung) was 6.1 µM. The GI50 (MDA-MB-435) was 2.43 µM, the TGI (MDA-MB-435) was > 44.2 µM and the GI50 (SNB-19 CNS) was 2.93 µM. For the same compound, the TGI (SNB-19 CNS) was > 100 µM, the GI50 (MDA-MB-231 breast) was 1.58 µM and the TGI (MDA-MB-231 breast) was 9.16 µM. For the same compound, the GI50 (SK-MEL-5 melanoma) was 2.07 µM, the TGI (SK-MEL-5 melanoma) was 5.16 µM and the GI50 (HCT-15 colon) was 4.29 µM. The TGI (HCT-15 colon) was > 100 µM, the GI50 (RPMI-8226 leukemia) was 2.14 µM and the TGI (RPMI-8226 leukemia) was 5.63 µM. The GI50 (SW-620 colon) was 2.56 µM, the TGI (SW-620 colon) was > 100 µM and the GI50 (OVCAR-4 ovarian) was 7.71 µM. For the same compound, the TGI (OVCAR-4 ovarian) was > 100 µM, the GI50 (SK-OV-3 ovarian) was > 100 µM and the TGI (SK-OV-3 ovarian) was > 100 µM. For the same compound, the GI50 (OVCAR-5 ovarian) was 5.18 µM, the TGI (OVCAR-5 ovarian) was > 100 µM and the GI50 (RXF 393 renal) was 0.381 µM. The TGI (RXF 393 renal) was 1.78 µM, the GI50 (NCI/ADR-RES ovarian) was > 100 µM and the TGI (NCI/ADR-RES ovarian) was > 100 µM. For the same compound, the GI50 (BT-549 breast) was 1.96 µM, the TGI (BT-549 breast) was 7.46 µM and the GI50 (HOP-62 NSCLC) was 3.69 µM. For the same compound, the TGI (HOP-62 NSCLC) was > 100 µM, the GI50 (SF-539 CNS) was 1.68 µM and the TGI (SF-539 CNS) was 4.39 µM. The GI50 (UACC-257 melanoma) was 2.66 µM, the TGI (UACC-257 melanoma) was > 100 µM and the GI50 (M14 melanoma) was 3.24 µM. For the same compound, the TGI (M14 melanoma) was > 100 µM, the GI50 (A549 NSCLC) was 2.91 µM and the TGI (A549 NSCLC) was > 77.7 µM. The GI50 (HT29 colon) was 2.5 µM, the TGI (HT29 colon) was > 41.8 µM and the GI50 (SK-MEL-2 melanoma) was 2.67 µM. For the same compound, the TGI (SK-MEL-2 melanoma) was 7.73 µM, the GI50 (UO-31 renal) was 9.78 µM and the TGI (UO-31 renal) was > 100 µM. It also gave a GI50 (SF-268 CNS) of 2.47 µM, a TGI (SF-268 CNS) of 34.2 µM and a GI50 (LOX IMVI melanoma) of 2.71 µM. The TGI (LOX IMVI melanoma) was > 100 µM, the GI50 (K-562 leukemia) was 3.92 µM and the TGI (K-562 leukemia) was > 100 µM. The GI50 (HOP-92 NSCLC) was 2 µM, the TGI (HOP-92 NSCLC) was > 100 µM and the GI50 (HCC-2998 colon) was 2.9 µM. For the same compound, the TGI (HCC-2998 colon) was > 100 µM, the GI50 (HCT-116 colon) was 2.57 µM and the TGI (HCT-116 colon) was > 100 µM. For the same compound, the GI50 (SK-MEL-28 melanoma) was 2.9 µM, the TGI (SK-MEL-28 melanoma) was > 100 µM and the GI50 (A498 renal) was 1.83 µM. The TGI (A498 renal) was 6.1 µM, the GI50 (SF-295 CNS) was 1.75 µM and the TGI (SF-295 CNS) was > 100 µM. The GI50 (IGROV1 ovarian) was 2.62 µM, the TGI (IGROV1 ovarian) was > 25.1 µM and the GI50 (SR leukemia) was 1.87 µM. The TGI (SR leukemia) was > 24.9 µM, the GI50 (T-47D breast) was 2.93 µM and the TGI (T-47D breast) was > 82.5 µM. For the same compound, the GI50 (SN12C renal) was 2.81 µM, the TGI (SN12C renal) was > 100 µM and the GI50 (COLO 205 colon) was 1.76 µM. The TGI (COLO 205 colon) was 3.47 µM, the GI50 (PC-3 prostate) was 3.56 µM and the TGI (PC-3 prostate) was > 100 µM. The GI50 (HL-60(TB) leukemia) was 2.65 µM, the TGI (HL-60(TB) leukemia) was 7.43 µM and the GI50 (CCRF-CEM leukemia) was 3.01 µM. The TGI (CCRF-CEM leukemia) was > 100 µM, the GI50 (ACHN renal) was 5.74 µM and the TGI (ACHN renal) was > 100 µM.
